Results on 13 compounds are retold here after PMC9864808, “Exploring Mannosylpurines as Copper Chelators and Cholinesterase Inhibitors with Potential for Alzheimer’s Disease” (Pharmaceuticals, 2022).

Data set [1] can be described thus: UV-Visible chelating study, aluminum. The settings on record: UV-Visible absorption. As for the experimental part: (§1) The chelating activity of all purine nucleoside probes was evaluated by the UV-Visible method in order to determine compounds’ absorption spectra in the absence and in the presence of Cu^2+ at concentrations ranging from 1 μM to 10 μM. […] The resulting wavelength shift from λ = 280 to λ = 325 nm indicates a conformational rearrangement induced by interaction with Cu^2+.
(§2) UV-Visible spectroscopy offers the advantage of high sensitivity towards small changes that affect the electronic properties of ligand receptors, so absorption spectra of all reported compounds have been evaluated by recording UV-visible properties in subsequent conditions: 1.5 mL 1 × 10^−4M of the probe are added to 1.5 mL 2 × 10^−5M of each ion chloride salt’s solution (Copper Chloride (CuCl2), Zinc Chloride (ZnCl2), Iron (II) Chloride (FeCl2) and Aluminum Chloride (AlCl3)). A mixture of distilled water/DMSO 95:5 has been selected as a solvent for compounds 5–10 and 12. For compounds 14–16, the selected solvent was a mixture of distilled water/DMSO 90:10 due to poor water solubility. Furthermore, a titration assay of each compound has been carried out by adding increasing concentration of selected ion (final ion concentration = 1 µM, 2 µM, 3 µM, 5 µM, and 10 µM).

Data set [2] is described as follows: UV-Visible chelating study, copper. The settings on record: ions Cu^2+, Zn^2+, Fe^2+, Al^3+ as chlorides, water/DMSO. The procedure:
as §1, §2

The target of data set [3] is T1, eqBChE (horse serum butyrylcholinesterase) (Equus caballus, UniProt P81908).
T1 construct: eqBChE (horse serum BChE); from tissue; host or cells: horse serum
T1 sequence (P81908 whole entry): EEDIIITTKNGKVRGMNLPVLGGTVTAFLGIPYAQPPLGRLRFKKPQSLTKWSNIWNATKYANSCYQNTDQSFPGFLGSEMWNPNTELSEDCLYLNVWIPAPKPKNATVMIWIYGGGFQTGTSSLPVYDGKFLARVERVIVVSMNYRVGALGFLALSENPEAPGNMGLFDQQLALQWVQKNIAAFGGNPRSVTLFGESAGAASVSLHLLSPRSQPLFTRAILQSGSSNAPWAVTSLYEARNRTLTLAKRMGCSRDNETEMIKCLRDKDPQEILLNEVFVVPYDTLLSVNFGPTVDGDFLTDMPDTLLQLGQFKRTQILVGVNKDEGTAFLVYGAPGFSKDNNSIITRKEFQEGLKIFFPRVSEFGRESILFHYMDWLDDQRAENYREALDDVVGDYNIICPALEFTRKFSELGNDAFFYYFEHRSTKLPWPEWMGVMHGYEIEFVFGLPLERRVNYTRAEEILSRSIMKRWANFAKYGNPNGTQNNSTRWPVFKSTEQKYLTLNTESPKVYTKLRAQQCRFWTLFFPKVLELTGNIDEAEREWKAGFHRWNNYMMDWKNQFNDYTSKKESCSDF
Description: biochemical. The conditions noted are these: for IC50: horse serum BChE, means ± SD of three measurements; for inhibition at 20 µM: read-out: inhibition percentage eqBChE. As for the experimental part: (§3) The in vitro inhibitory activities of novel purine nucleosides 5-10, 12, 13 and 15, and 16 were evaluated against both heterologous (electric eel eeAChE, horse eqBChE) and human (recombinant) cholinesterases isoforms, by applying the Ellmann colorimetric assay, with slight modifications. […] The test compounds were assayed for their inhibitory activity toward eeAChE (electric eel AChE) and eqBChE (horse serum BChE), respectively, following Ellman’s method with modifications. […] AChE inhibitory activity was determined similarly by using a solution of AChE (0.9 U/mL in 0.1 M pH 8.0 phosphate buffer, PB) and acetylthiocholine iodide (ATC, 0.05 mM in 0.1 M pH 8.0 phosphate buffer, PB) as substrate. The inhibition data are reported as means of IC50’s determined at least in three independent measurements.

Data set [4] concerns the target eeAChE (electric eel acetylcholinesterase) (Electrophorus electricus, UniProt O42275). Put plainly: biochemical. The conditions noted are these: for IC50: Ellman assay, means ± SD of three measurements; for inhibition at 20 µM: read-out: inhibition percentage eeAChE, at 20 μM. As for the experimental part: as §3
The nature of data set [5]: UV-Visible chelating study, iron. The settings on record: UV-Visible absorption. The procedure:
as §1, §2

Data set [6] can be described thus: UV-Visible chelating study, zinc. The conditions noted are these: UV-Visible absorption. As for the experimental part: as §1, §2
The target in data set [7] is hAChE (recombinant human isoform) (Homo sapiens, UniProt P22303). Put plainly: biochemical. It counts as biochemical. The settings on record: for inhibition at 20 µM: read-out: inhibition percentage hAChE; for IC50: recombinant human isoform, means ± SD of three measurements. As for the experimental part:
(§4) The in vitro inhibitory activities of novel purine nucleosides 5-10, 12, 13 and 15, and 16 were evaluated against both heterologous (electric eel eeAChE, horse eqBChE) and human (recombinant) cholinesterases isoforms, by applying the Ellmann colorimetric assay, with slight modifications.
(§5) The test compounds were assayed for their inhibitory activity toward eeAChE (electric eel AChE) and eqBChE (horse serum BChE), respectively, following Ellman’s method with modifications. […] AChE inhibitory activity was determined similarly by using a solution of AChE (0.9 U/mL in 0.1 M pH 8.0 phosphate buffer, PB) and acetylthiocholine iodide (ATC, 0.05 mM in 0.1 M pH 8.0 phosphate buffer, PB) as substrate. The inhibition data are reported as means of IC50’s determined at least in three independent measurements.

Data set [8] deals with hBChE (recombinant human isoform) (Homo sapiens, UniProt P06276). Put plainly: biochemical. It counts as biochemical. The settings on record: for IC50: recombinant human isoform, means ± SD of three measurements. As for the experimental part: as §4, §5
Sequence of hBChE (recombinant human isoform) (P06276 29-602): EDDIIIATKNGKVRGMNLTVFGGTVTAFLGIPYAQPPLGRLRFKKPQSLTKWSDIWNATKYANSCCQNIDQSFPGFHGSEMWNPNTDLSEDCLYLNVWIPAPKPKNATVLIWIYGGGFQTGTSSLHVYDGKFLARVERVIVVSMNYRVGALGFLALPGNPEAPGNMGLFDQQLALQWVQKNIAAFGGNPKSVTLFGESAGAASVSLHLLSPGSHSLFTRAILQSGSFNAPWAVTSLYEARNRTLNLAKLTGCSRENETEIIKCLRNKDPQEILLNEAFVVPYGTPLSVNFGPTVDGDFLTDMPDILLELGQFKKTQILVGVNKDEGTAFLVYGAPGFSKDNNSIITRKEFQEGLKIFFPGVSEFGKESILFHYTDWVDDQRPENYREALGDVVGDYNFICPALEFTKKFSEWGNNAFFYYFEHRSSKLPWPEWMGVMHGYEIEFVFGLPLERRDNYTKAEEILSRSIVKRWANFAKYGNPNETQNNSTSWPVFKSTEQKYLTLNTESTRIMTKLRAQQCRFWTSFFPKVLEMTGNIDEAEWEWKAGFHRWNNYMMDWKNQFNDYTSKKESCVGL
Data set [9] can be described thus: Water solubility (qualitative remark). The data set is classed as physicochemical.
Another data set has as its system brain AChE. The settings on record: literature value determined for brain AChE; read-out: IC50 hAChE; cited from earlier work.
For the next data set, the system named is serum BChE. The conditions noted are these: literature value determined for serum BChE; read-out: IC50 hBChE; cited from earlier work.
Where [10] appears, read: at 5 μM (lower water solubility), 5 µM.

Where “and” joins values, the source holds several entries; their conditions need not be identical. Equal entries are not always repeated.

Sequence of hAChE (recombinant human isoform) (P22303 32-614): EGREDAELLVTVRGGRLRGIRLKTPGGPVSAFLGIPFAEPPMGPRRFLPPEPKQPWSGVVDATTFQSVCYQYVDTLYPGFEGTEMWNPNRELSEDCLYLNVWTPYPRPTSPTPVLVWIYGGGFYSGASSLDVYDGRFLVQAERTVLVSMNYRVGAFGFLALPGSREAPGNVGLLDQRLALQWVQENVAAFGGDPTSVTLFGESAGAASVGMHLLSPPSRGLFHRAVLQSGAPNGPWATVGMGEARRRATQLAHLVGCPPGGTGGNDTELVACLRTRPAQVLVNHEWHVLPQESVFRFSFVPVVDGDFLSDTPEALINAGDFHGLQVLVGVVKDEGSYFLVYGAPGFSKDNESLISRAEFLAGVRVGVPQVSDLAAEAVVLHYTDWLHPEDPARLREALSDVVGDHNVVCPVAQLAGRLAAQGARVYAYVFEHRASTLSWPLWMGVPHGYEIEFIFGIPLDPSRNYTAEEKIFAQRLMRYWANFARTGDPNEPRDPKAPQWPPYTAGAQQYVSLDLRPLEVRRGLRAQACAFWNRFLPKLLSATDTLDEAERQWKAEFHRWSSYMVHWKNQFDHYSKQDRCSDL
Sequence of eeAChE (electric eel acetylcholinesterase) (O42275 24-633): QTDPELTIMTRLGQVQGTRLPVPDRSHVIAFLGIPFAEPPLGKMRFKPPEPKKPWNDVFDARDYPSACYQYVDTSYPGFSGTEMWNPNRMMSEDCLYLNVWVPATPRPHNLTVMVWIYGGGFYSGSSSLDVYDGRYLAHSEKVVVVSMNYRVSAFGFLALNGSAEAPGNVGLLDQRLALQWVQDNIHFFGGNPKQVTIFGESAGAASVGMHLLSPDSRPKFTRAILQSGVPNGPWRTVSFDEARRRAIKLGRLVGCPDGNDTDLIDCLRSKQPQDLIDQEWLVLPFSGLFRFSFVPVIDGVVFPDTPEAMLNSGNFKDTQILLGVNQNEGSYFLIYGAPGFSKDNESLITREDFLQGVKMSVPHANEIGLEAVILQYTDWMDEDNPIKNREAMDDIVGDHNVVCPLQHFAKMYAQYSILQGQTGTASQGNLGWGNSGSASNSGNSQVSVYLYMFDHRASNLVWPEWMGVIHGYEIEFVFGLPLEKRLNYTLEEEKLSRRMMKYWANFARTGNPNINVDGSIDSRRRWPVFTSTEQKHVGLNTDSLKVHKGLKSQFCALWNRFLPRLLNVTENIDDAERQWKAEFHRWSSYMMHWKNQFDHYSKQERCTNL

Take `C[C@@H]1O[C@@H](n2cnc3c(N(Cc4ccccc4)C(=O)c4ccccc4)ncnc32)[C@H](OCc2ccccc2)[C@H](OCc2ccccc2)[C@H]1OCc1ccccc1` [Compound 13, 6-benzamido-N-benzyl-9-(6-deoxy-2,3,4-tri-O-benzyl-α-L-mannopyranosyl)purine]: the “interaction with aluminum ion, result in words” value in data set [1] is given as “did not show chelating activity”. Besides, in data set [2], the “chelating activity / metal selectivity, result in words” value (“chelating activity / metal selectivity” below) is “did not show chelating activity”. Further, in data set [3], the “eqBChE inhibition, result in words” value is listed as “selective”; the IC50 – broadly, the concentration that inhibits the measured activity by half – was 5.1 µM and 5.12 µM. For the same compound, in data set [4], the IC50 is > 20 µM and the inhibition (in general, the drop in the measured response relative to a control, in per cent) at 20 µM stood at 6%. In addition, the “interaction with iron ion, result in words” value in [5] is on record as “did not show chelating activity”. In addition, the “interaction with zinc ion, result in words” value in data set [6] is listed as “did not show chelating activity”. In data set [7], the “hAChE inhibition, result in words” value was “no activity”; the inhibition at 20 µM is 8%; the IC50 is > 20 µM. In data set [8], the “hBChE inhibition, result in words” value is recorded as “no activity” and the IC50 is > 20 µM. Moreover, the inhibition at 20 µM in [8] (at 20 μM, read-out: inhibition percentage hBChE) was 25%.
Turning to `O=C(Nc1ncnc2ncn([C@H]3O[C@H](COCc4ccccc4)[C@@H](OCc4ccccc4)[C@H](OCc4ccccc4)[C@@H]3OCc3ccccc3)c12)c1ccccc1` [Compound 7, 6-benzamido-7-(2,3,4,6-tetra-O-benzyl-α-D-mannopyranosyl)purine], in data set [3], the “eqBChE inhibition, result in words” value is “selective” and the IC50 was 10 ± 1.1 µM. In addition, in data set [4], the IC50 was > 20 µM.
Take `C[C@H]1O[C@H](n2cnc3c(NC(=O)c4ccccc4)ncnc32)[C@@H](OCc2ccccc2)[C@@H](OCc2ccccc2)[C@@H]1OCc1ccccc1` [Compound 9, 6-benzamido-9-(6-deoxy-2,3,4-tri-O-benzyl-α-D-mannopyranosyl)purine]: in data set [3], the inhibition at 20 µM was found to be 28% and the IC50 was > 20 µM. Further, in [4], the “eeAChE inhibition, result in words” value is listed as “selective inhibitor”; the IC50 was 4.7 µM and 4.69 µM. Besides, in data set [7], the inhibition at 20 µM came to 25% and the IC50 is > 20 µM. Besides, in data set [8], the “hBChE inhibition, result in words” value was “selective inhibitor” and the IC50 was found to be 15.4 ± 1.1 µM.
Consider `C[C@H]1O[C@@H](n2cnc3c(NC(=O)c4ccccc4)ncnc32)[C@@H](OCc2ccccc2)[C@@H](OCc2ccccc2)[C@@H]1OCc1ccccc1` [Compound 10, 6-benzamido-9-(6-deoxy-2,3,4-tri-O-benzyl-β-D-mannopyranosyl)purine], for which the “eqBChE inhibition, result in words” value in data set [3] is recorded as “moderate inhibition”. For the same compound, the IC50 stood at 11.7 ± 1.2 µM in data set [3], 15 ± 2.1 µM in data set [4], 17.8 ± 2.2 µM in data set [7] and 8.7 ± 1.35 µM in data set [8].
Regarding `C[C@@H]1O[C@H](n2cnc3c(NC(=O)c4ccccc4)ncnc32)[C@H](OCc2ccccc2)[C@H](OCc2ccccc2)[C@H]1OCc1ccccc1` [Compound 16, 6-benzamido-9-(6-deoxy-2,3,4-tri-O-benzyl-β-L-mannopyranosyl)purine], in [2], the “chelating activity / metal selectivity” value is given as “non-selective chelator”. The half-inhibitory concentration (IC50) in data set [3], in data set [4], in data set [7] and in data set [8] was > 5 µM in each case. Further, the “water solubility, in words” value in data set [9] is on record as “dramatic reduction of aqueous solubility”. In addition, in data set [8] (setting [10]), the “inhibition percentage hBChE” value was found to be 30 ± 7%. In addition, in [8] (at 5 μM (lower water solubility), read-out: inhibition percentage hBChE), the inhibition at 5 µM is < 50%.
`COc1ccc2c3c1O[C@H]1C[C@@H](O)C=C[C@@]31CCN(C)C2` [Galantamine]: the results for the IC50 in the data set on brain AChE and with serum BChE were 5 ± 0.071 µM and 59.2 ± 1.7 µM, respectively.
For `CC(=O)O[C@@H]1[C@@H](OC(C)=O)[C@H](C)O[C@@H](n2cnc3c(NC(=O)c4ccccc4)ncnc32)[C@@H]1OC(C)=O` [Compound 12, 6-benzamido-9-(6-deoxy-2,3,4-tri-O-acetyl-α-L-mannopyranosyl)purine], the “chelating activity / metal selectivity” value in data set [2] is recorded as “selective Cu^2+ chelating agents”. In [3], the “eqBChE inhibition, result in words” value is “not active”; the inhibition at 20 µM was 5%; the IC50 is > 20 µM. Also, in data set [4], the “eeAChE inhibition, result in words” value is listed as “not active”; the IC50 was > 20 µM; the inhibition at 20 µM stood at 8%. The “hAChE inhibition, result in words” value in data set [7] is on record as “not active”. The “hBChE inhibition, result in words” value in [8] is reported as “not active”.
Take `O=C(Nc1ncnc2c1ncn2[C@H]1O[C@H](COCc2ccccc2)[C@@H](OCc2ccccc2)[C@H](OCc2ccccc2)[C@@H]1OCc1ccccc1)c1ccccc1` [Compound 5, 6-benzamido-9-(2,3,4,6-tetra-O-benzyl-α-D-mannopyranosyl)purine]: in [3], the inhibition at 20 µM stood at 11% and the concentration for half-maximal inhibition (IC50) was > 20 µM. In [4], the IC50 was > 20 µM and the inhibition at 20 µM stood at 25%.
Regarding `C[C@@H]1O[C@@H](n2cnc3c(NC(=O)c4ccccc4)ncnc32)[C@H](OCc2ccccc2)[C@H](OCc2ccccc2)[C@H]1OCc1ccccc1` [Compound 15, 6-benzamido-9-(6-deoxy-2,3,4-tri-O-benzyl-α-L-mannopyranosyl)purine], the “interaction with aluminum ion, result in words” value in data set [1] is “no relevant interaction”. In data set [2], the “chelating activity / metal selectivity” value is “selective copper chelator”. Also, the IC50 in data set [3], in data set [4], in data set [7] and in [8] was > 5 µM in each case. In addition, the inhibition at 5 µM in data set [4] (read-out: inhibition percentage eeAChE, at 5 μM (lower water solubility)) was ≤ 50%. Also, the “water solubility, in words” value in [9] was “dramatic reduction of aqueous solubility”. The “interaction with iron ion, result in words” value in data set [5] is on record as “no relevant interaction”. The “interaction with zinc ion, result in words” value in [6] is on record as “no relevant interaction”. For the same compound, the “inhibition percentage hAChE” value in data set [7] (setting [10]) is 28 ± 3%.
Regarding `O=C(Nc1ncnc2ncn([C@@H]3O[C@H](COCc4ccccc4)[C@@H](OCc4ccccc4)[C@H](OCc4ccccc4)[C@@H]3OCc3ccccc3)c12)c1ccccc1` [Compound 8, 6-benzamido-7-(2,3,4,6-tetra-O-benzyl-β-D-mannopyranosyl)purine], the IC50 in [3] was 4.4 ± 1.3 µM; in data set [4], 2.6 µM and 2.61 µM; in data set [7], 4.8 µM and 4.81 µM; in data set [8], 4.6 µM and 4.55 µM.
On to `CC(=O)Nc1nc(Cl)c2c(ncn2[C@H]2O[C@H](COCc3ccccc3)[C@@H](OCc3ccccc3)[C@H](OCc3ccccc3)[C@@H]2OCc2ccccc2)n1` [Compound 2, reference compound], for which the figures for the IC50 in data set [3] and in data set [4] were 0.05 ± 0.01 µM and 18.1 ± 4.8 µM, respectively.
On to `Clc1ncnc2c1ncn2[C@H]1O[C@H](COCc2ccccc2)[C@@H](OCc2ccccc2)[C@H](OCc2ccccc2)[C@@H]1OCc1ccccc1` [Compound 1, 6-chloro-9-(2,3,4,6-tetra-O-benzyl-α-D-mannopyranosyl)purine, reference compound], for which the concentration for half-maximal inhibition (IC50) in data set [3] worked out at 2.8 ± 0.3 µM; in data set [4], 2.4 ± 0.3 µM.
For `O=C(Nc1ncnc2c1ncn2[C@@H]1O[C@H](COCc2ccccc2)[C@@H](OCc2ccccc2)[C@H](OCc2ccccc2)[C@@H]1OCc1ccccc1)c1ccccc1` [Compound 6, 6-benzamido-9-(2,3,4,6-tetra-O-benzyl-β-D-mannopyranosyl)purine], the IC50 in data set [3] was 4.3 µM and 4.29 µM; in data set [4] it was 10.6 ± 1.1 µM; in data set [7], 17 ± 0.75 µM; in [8], 4.6 µM and 4.58 µM.
